Patent publication US20060135587A1, “Method and compounds for promoting healing and reducing inflammation” (priority 2002, published 2006)

How the values were obtained:
[1] = system: acute Con A-induced inflammation; assay: Acute Con A-induced inflammation (paw oedema) in mice; type: in vivo
Protocol: Saline solution was similarly administered to the control animals. There were 10 mice in each group. After one hour, con A at a dose of 100 mkg/20 g of body weight was administered by sub-plantar injection into the plantar aponeurosis of the left paws of mice of both the experimental and control groups. The same amount of saline splution was injected into the contralateral paws. After one hour, the mice were killed and the experimental and control paws were weighed to assess the reaction index of the inflammation in the ankle-joint (Liubimov et al, 1999).
The anti-inflammatory effect of Compound 2 and Compound 7 was compared in male mice weighing 18-22 g, using the model described in Example 9. The ED50, i.e. the dose reducing paw ooedema by 50% one hour after injection of Concanavalin A, was calculated.

[2] = system: regeneration of liver after partial hepatectomy; assay: Liver regeneration after partial hepatectomy in rats; type: in vivo
Protocol: Partial hepatectomy was performed using the conventional method (Higgins and Anderson, 1931) by removing the left lateral and central lobes of the liver from 80 male white rats, weighing 180-200 g.
Compound 2, Compound 4, Compound 5 or Compound 6 was administered to the experimental groups intraperitoneally in equimolar doses of 0.1 mM/kg and 0.2 mM/kg. These optimal doses were determined in preliminary experiments. The control group received intraperitoneal injections of saline solution. The compounds were administered on the day after the operation and then one injection was given daily over the course of 7 days, since maximum growth of the liver mass in rats is observed in the first 7 days after partial hepatectomy (Solopaev, 1980).
The effectiveness of the compounds was compared to that of a combination of non-steroid anabolic regeneration stimulators which are used in the treatment of liver pathology, namely Riboxin and potassium orotate at a dose of 0.2 mM/kg each (Rychnev and Frolov, 1984).
For quantitative evaluation of the regeneration process in the liver the coefficient of regeneration completion as determined by the formula below was used: [formula] where
Stimulation of the regeneration of tissue after hepatectomy in response to different medicinal preparations is associated with an increase in the synthesis of nucleic acids, as indicated by the increase in the content of RNA and DNA in the regenerated tissue. Quantitative analysis of DNA and RNA was performed by centrifugation. […] The enzymic component of anti-oxidant protection was also assessed on the basis of the activity of catalase and superoxidedismutase (SOD).
5 ml of […] of HCIO4 solution were added to the sample (100 mg). In order to ensure complete sedimentation of the acid-insoluble fraction, the beakers were put in ice for 15 minutes. Then they were centrifuged for 10 minutes at 5000 revolutions per minute. The sediment was washed twice with 0.2 M HCIO4. After the final centrifugation, the walls of the beaker were carefully dried with gauze and filter paper. The sediment was ground down with a glass pestle, suspended in 1 ml of water and then 1 ml of 0.6 M KON solution was added at room temperature. Hydrolysis was performed over the course of 1 hour at 37° C., then the beakers were put in ice to stop the hydrolysis process. 4 ml of the 0.6 M solution were added to each beaker and the beakers were left in ice for another 15 minutes, then centrifuged for 15 minutes at 5000 revolutions per minute. The supernatant was used to determine the RNA by UV absorption at 260 nm and 290 nm compared to the control sample containing 0.4M of HCIO4). The amount of RNA in μg per 1 ml of the supernatant was calculated using the following formula: [formula] where C=is the RNA concentration (μg/ml)
DNA analysis was carried out on the sediment remaining after the alkaline hydrolysis used to determine RNA. 0.5 M of HCIO4 (5 ml per sample) was poured into the dried beaker containing the sediment. Hydrolysis was performed in a boiling water bath for 20 minutes. The amount of DNA in μg per 1 ml of the hydrolysate was calculated using the following formula: [formula] where C=is the DNA concentration (μg/ml). Catalase Activity
Catalase activity was determined using the permanganate method. The optimal amount of the substrate (3 ml of 1% H2O2) and 1 ml of the enzyme were added to 10 ml of phosphate buffer, pH 7.8. After 10 minutes the reaction was stopped by adding 1.5 ml of H2SO4 (50%). The remaining hydrogen peroxide was filtered with 0.1M of KMnO4 solution. Catalase activity was calculated on the basis that 1 ml of 0.1M of KMnO4 solution corresponds to […] of H2O2.
SOD activity was determined using the dianisidine method, which is based on the fact that under ultraviolet irradiation Riboflavin (Rb) is converted to an excited (ionised) state and therefore becomes able to attack reduced dianisidine (DH2). […]

[3] = system: liver after partial hepatectomy; assay: Morphological study of the liver after partial hepatectomy; type: in vivo, rats; settings: 0.2 MM/kg; one week after hepatectomy
Protocol: Morphological methods are highly informative in the assessment of repair processes. Histological tests of the liver after partial hepatectomy were performed using generally accepted methods. Microscopic sections were stained with hematoxylin and eosin using Van Gieson's methodology. Liver tests after partial hepatectomy were performed on 8 groups of animals, totalling 37 rats. All animals were examined one week after hepatectomy.

[4] = system: cryogenic injuries of the sigmoid colon; assay: Cryogenic damage of the colon, model of ulcerative colitis; type: in vivo, rats; settings: day 7; oral; Methyl uracil 180 mg/kg, Potassium orotate 50 mg/kg + Riboxin 50 mg/kg, Sulfasalazine 2 g/kg; one figure for the comparison agents
Protocol: A model of cryogenic damage of the colon was used in this experiment to simulate ulcerative colitis. Cryogenic injuries of the sigmoid colon of rats were induced by pressing a metal rod of […] in diameter cooled in liquid nitrogen to the serous membrane of the colon for 10 seconds under ether anaesthesia.
Tests were performed on 67 male rats weighing 180-200 g, with 8 animals in each group. Animals were kept in separate cages, with normal food and water ad libitum. The test compounds were administered orally on the second day after the operation, and then daily until healing was complete. Compound 2 or Compound 6 was administered to test animals at a dose of 20-50 mg/kg. The following agents were used for comparison:
The nature of the healing of the ulcer injury was examined morphologically on days 1, 3 and 7. […] The inflammatory process extends beyond the injured area into the adjacent areas, and beyond the peritoneum into fatty connective tissue.

myocardial infarction = assay: Clinical comparison of Compound 2 and Riboxin in subacute myocardial infarction (Example 25); type: in vivo, human
Protocol: A total of 94 patients were examined; of these:
Conventional therapy as for example 24 was given to 30 patients. Each patient continued to receive the treatment which s/he had been given prior to commencement of the trial. Compound 2 was administered in addition to the previous treatment.
All the patients underwent standard laboratory tests prior to commencement of Compound 2 therapy, 14 days after the beginning of the course and upon completion of the course. The tests included clinical blood analysis; general urine analysis; evaluation of creatinine, bilirubin, transaminase activity, blood sugar, cholesterol and β-lipoproteins, malonic dialdehyde, Schiff bases, zinc, iron, copper, plasma potassium and sodium, prothrombin and fibrinogen; and an ECG examination in dynamics.
All the patients received conventional therapy, i.e. nitrates, anticoagulants and/or hypotensive agents as appropriate.
Combination therapy included Compound 2 (1st group—32 patients) or Riboxin (2nd group—18 patients). The agents were administered at a dose of 200 mg three times per day.

[5] = system: neurogenic dystrophy of the myocardium; assay: Myocardial infarction model (electrostimulation), enzymes in rabbit myocardium; type: in vivo, rabbits; settings: 5 mg/kg; 48 hours after electrostimulation
Text: The effect of Compound 2 on myocardial tissue in an experimental model of myocardial infarction was examined. In this model system neurogenic dystrophy of the myocardium was induced in rats or rabbits by electrical stimulation of the reflexogenic zone of the aortic arch by implanted electrodes for a period of three hours. […] These changes are accompanied by changes in biochemical indicators such as creatine phosphate, cAMP, and calcium ion concentrations, and changes in the activity of redox enzymes such as succinate dehydrogenase, lactate dehydrogenase, and glucose-6-phosphate dehydrogenase. At a later stage organic lesions of the myocardium such as necrotic and fibrosclerotic foci can be observed.
The effect of Compound 2 given intraperitoneally or orally on these indicators was examined in rats and rabbits following electrostimulation as described above. The effects on levels of creatine phosphate in rat myocardial are shown in Table 19, and the effects on adenosine triphosphatase (ATPase), succinate dehydrogenase and glucose-6-phosphate dehydrogenase rabbit myocardium are shown in Table 20. The effects on cAMP and Ca^++ levels in rabbit myocardial tissue are shown in FIG. 5, and effects on creatine kinase in rabbit myocardium and blood and the levels of creatine phosphate in myocardium are shown in FIG. 6.

[6] = system: lesions of the gastric mucosa; assay: Gastric lesions induced by electrostimulation of immobilised rats; type: in vivo
Protocol: (§1) The models used gastric ulcers induced by
a) Electrostimulation of immobilised rats for 3 hours;
(§2) The compounds were administered intraperitoneally at a dose of 20 mg/kg; in the cryogenic ulcer model compound 2 was administered either intraperitoneally (10 mg/kg) or orally (20 mg/kg twice daily, ie. a total of 40 mg/kg/day) and was compared to orally-administered gastrocepin (1 mg/kg twice daily, ie. a total of 2 mg/kg/day).

[7] = system: cryogenic ulcer of the gastric mucosa; assay: Cryogenic gastric ulcer in rats; type: in vivo; settings: healing effect over the course of 14 days; regimen not printed in the row
Protocol: as §1
c) Ulcer created by local wounding with a cryogenic probe using a method similar to that described above for mouth ulcers.
as §2

white male mice = settings: for LD50: intraperitoneal injection, white male mice, 14 days observation
Protocol: The acute toxicity of 1,3-dialkyl-4,5-bis (N-methylcarbamoyl)imidazolium salts was assessed following intraperitoneal injection into 200 white male mice weighing 18 to 20 g. Dead animals were counted daily after the administration of the test substance.

[8] = system: lesions of the gastric mucosa; assay: Gastric lesions induced by immobilization and hypothermia; type: in vivo, rats; parameters: % reduction of degree of ulceration / % reduction of ulcerated area: concentration or dose not given beside the values; settings: Protective effect, 30 minutes before the test
Protocol: as §1
b) Immobilization and hypothermia (induced by water cooling);
as §2

[9] = Table 3, 50 mg/kg intra-peritoneally one hour before Con A, male CBA mice
[10] = 200 mg three times per day plus conventional therapy
[11] = Healing effect over the course of 3 days
[12] = Protective effect, 30 minutes before the test
[13] = Table 4, 0.005M dose (Compound 2 19 mg/kg, Compound 7 16.4 mg/kg) + Con A
[14] = Table 4, 0.01M dose (Compound 2 38 mg/kg, Compound 7 32 mg/kg) + Con A
[15] = Table 4, 0.015M dose (Compound 2 57 mg/kg, Compound 7 49 mg/kg) + Con A
[16] = Table 4, 0.02M dose (Compound 2 76 mg/kg, Compound 7 65.6 mg/kg) + Con A

CC[n+]1cn(C)c(C(=O)NC)c1C(=O)NC.O=C([O-])c1ccccc1 [Compound 5, 1-methyl-3-ethyl-4,5-bis(N-methylcarbamoyl)-imidazolium benzoate]
Reaction index (%) [1, 9]: 7.2 ± 1.8 % | Catalase E activity ([2]; 0.2 mM/kg): 17.3 ± 2.6 μgM/min/g tissue × 1000 | DNA content (in mg/g of tissue) ([2]; 0.2 mM/kg): 3.76 ± 0.29 mg/g of tissue | Protein content ([2]; 0.2 mM/kg): 86.8 ± 6.9 Mg/g tissue | RNA content (mg/g of tissue) ([2]; 0.2 mM/kg): 7.46 ± 0.14 mg/g of tissue | SOD activity ([2]; 0.2 mM/kg): 103.0 ± 4.4 Units/g tissue | Level of recovery ([2]; 0.2 mM/kg intraperitoneally, 7 days, hepatectomy alone = 100): 120.3 | histological findings in the liver [3]: some of the animals demonstrated hepatocyte hypertrophy combined with subacute hepatitis

Cc1cc(=O)[nH]c(=O)[nH]1 [Methyl uracil, reference compound]
animals demonstrating complete healing [4]: 18%

OC[C@H]1O[C@@H](n2cnc3c(O)ncnc32)[C@H](O)[C@@H]1O [Riboxin, inosine, reference compound]
cholesterol levels (myocardial infarction; [10]): 85.5% | level of prothrombin (myocardial infarction; [10]): 88.7% | ejection fraction (myocardial infarction; 200 mg three times per day plus conventional therapy, 54.4±1.5% in the absence of the agent): 56.8±1.3% | superoxide dismutase levels (myocardial infarction; after therapy, 18-20 before treatment, norm 23): 21.5 conventional units | level of Schiff bases (myocardial infarction; after therapy, 75 before treatment, normal 60): 62.6 conventional units | cases in which cicatrisation took place one or two days earlier (myocardial infarction; patients with repeated myocardial infarct): 12%

CCn1cnc(C(=O)NC)c1C(=O)NC [Ethimizol, 1-ethylimidazole-4,5-dicarboxylic acid bis-N-methylamide, reference compound]
ATPase [5]: 0.43 ± 0.11 µM/mg/min | Glucose-6-phosphate dehydrogenase (optical density units) [5]: 5.8 ± 0.7 optical density units | Succinate dehydrogenase (optical density units) [5]: 39.7 ± 7.4 optical density units

1,3-dimethyl-4,5-bis(N-methylcarbamoyl)-imidazolium benzenesulfonate [Compound 1]
Reaction index (%) ([1]; Table 3, 10 mg/kg intra-peritoneally one hour before Con A, male CBA mice): 14.6 ± 3.5% | Reaction index (%) [1, 9]: 5.3 ± 2.0 % | % reduction of degree of ulceration [6, 11]: 18% | Average number of lesions per animal [6, 11]: 2.8 ± 0.7 | % reduction of degree of ulceration [6, 12]: 0% | % reduction of ulcerated area [6, 12]: 0% | Area of lesion [6, 12]: 15.0 ± 4.7 | Average number of lesions per animal ([6]; Protective effect, 30 minutes before the test, 20 mg/kg intraperitoneally): 7.0 ± 0.7 | % reduction of degree of ulceration [7]: 53% | Average number of lesions per animal [7]: 8.8 ± 1.9 | toxicity (white male mice): very low toxicity | LD50 (white male mice): 1833 mg/kg | % reduction of degree of ulceration [8]: 0% | % reduction of ulcerated area [8]: 0% | Area of lesion [8]: 10.1 ± 1.4 | Average number of lesions per animal ([8]; 20 mg/kg intraperitoneally): 10.2 ± 1.2

1-methyl-3-ethyl-4,5-bis(N-methylcarbamoyl)-imidazolium 2,4-dihydroxybenzoate [Compound 7]
Paw oedema reduction (%) [1, 13]: 60% | Reaction index (%) [1, 13]: 6.73 ± 2.2% | Paw oedema reduction (%) [1, 14]: 13% | Reaction index (%) [1, 14]: 9.93 ± 2.8% | Paw oedema reduction (%) [1, 15]: 45% | Reaction index (%) [1, 15]: 7.2 ± 1.8% | Paw oedema reduction (%) [1, 16]: 70% | Reaction index (%) [1, 16]: 4.9 ± 1.7% | ED50, dose reducing paw oedema by 50% one hour after injection of Concanavalin A ([1]; male mice): 52 mg/kg | toxicity (white male mice): very low toxicity | LD50 (white male mice): 1221 mg/kg

O=C(O)c1cc(/N=N/c2ccc(S(=O)(=O)Nc3ccccn3)cc2)ccc1O [Sulphasalazine, Sulfasalazine, reference compound]
animals demonstrating complete healing [4]: 18%
